These results are taken from article PMC10439133, “Biosynthesis of ansamitocin P-3 incurs stress on the producing strain Actinosynnema pretiosum at multiple targets” (Communications Biology, 2023).

For experiment [1], the target named is T1, deoxythymidine diphosphate glucose-4,6-dehydratase (dTGD) (Actinosynnema pretiosum, UniProt A0A290ZDY1).
T1 construct: gene rfbB; recombinant His-tagged, from pET30a in E. coli BL21(DE3)
T1 sequence (A0A290ZDY1 1-330): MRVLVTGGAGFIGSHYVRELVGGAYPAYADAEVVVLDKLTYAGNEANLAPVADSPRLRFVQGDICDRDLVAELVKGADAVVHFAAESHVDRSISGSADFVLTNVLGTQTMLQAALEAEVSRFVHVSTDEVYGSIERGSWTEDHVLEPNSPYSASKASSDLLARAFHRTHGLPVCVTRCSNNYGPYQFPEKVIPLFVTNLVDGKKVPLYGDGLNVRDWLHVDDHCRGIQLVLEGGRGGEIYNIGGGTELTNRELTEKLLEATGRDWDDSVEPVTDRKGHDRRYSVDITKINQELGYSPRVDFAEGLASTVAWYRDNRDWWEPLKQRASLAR
The experiment in a line: SPR (Biacore 8K, CM5 chip); also enzyme inhibition with KI =[…]. In kind it is binding. For orientation: Surface plasmon resonance follows binding to a sensor surface in real time, without labels.

Experiment [2] has as its target T2, flavin-dependent thymidylate synthase (FDTS) (Actinosynnema pretiosum, UniProt A0A290ZCH3).
T2 construct: gene thyX; recombinant His-tagged, from pET30a in E. coli BL21(DE3)
T2 sequence (A0A290ZCH3 1-250): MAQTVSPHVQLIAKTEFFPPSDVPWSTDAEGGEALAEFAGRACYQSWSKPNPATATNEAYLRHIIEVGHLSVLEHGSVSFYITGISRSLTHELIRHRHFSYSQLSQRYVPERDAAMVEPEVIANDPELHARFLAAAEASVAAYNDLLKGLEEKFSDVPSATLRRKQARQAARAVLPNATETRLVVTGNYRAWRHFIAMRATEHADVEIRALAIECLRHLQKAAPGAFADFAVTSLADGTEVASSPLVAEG
The experiment in a line: SPR (Biacore 8K, CM5 chip); also NADPH oxidase inhibition with KI =[…]. In kind it is binding.

A word on the Kd: it is a measure of binding affinity in units of concentration. Read a low Kd as tighter binding. In the case of `COc1cc2cc(c1Cl)N(C)C(=O)C[C@H](OC(=O)C(C)C)[C@]1(C)O[C@H]1[C@H](C)[C@@H]1C[C@@](O)(NC(=O)O1)[C@H](OC)/C=C/C=C(\C)C2` [AP-3, ansamitocin P-3], the Kd stood at 360 µM in experiment [1] and 66.5 µM in experiment [2].
